tested on: Small Brown Planthopper (Laodelphax Striatellus); experiment: Test of insecticidal efficacy against small brown planthopper (Test Example 2); assay type: in vivo; conditions: 500 ppm, rice plants soaked 30 seconds, third-instar larvae, eight days after inoculation; criteria same as in Test Example 1
Description: Test of Insecticidal Efficacy Against Small Brown Planthopper (Laodelphax Striatellus)

Structure (SMILES)	Corrected insect mortality, judgment
C#CCN1C(=O)c2nn(-c3cccnc3)cc2Oc2ccccc21 [1-3]	A to D
N#CCN1C(=O)c2nn(-c3cccnc3)cc2Oc2ccccc21 [1-4]	A to D
O=C1c2nn(-c3cccnc3)cc2Oc2ccccc2N1CC(F)(F)F [1-5]	A to D
O=C1Nc2cccc(F)c2Oc2cn(-c3cccnc3)nc21 [1-6]	A to D
CN1C(=O)c2nn(-c3cccnc3)cc2Oc2c(F)cccc21 [1-7]	A to D
C#CCN1C(=O)c2nn(-c3cccnc3)cc2Oc2c(F)cccc21 [1-8]	A to D
N#CCN1C(=O)c2nn(-c3cccnc3)cc2Oc2c(F)cccc21 [1-9]	A to D
C#CCN1C(=O)c2nn(-c3cccnc3)cc2Oc2cc(F)ccc21 [1-12]	A to D
O=C1Nc2cc(F)ccc2Oc2cn(-c3cccnc3)nc21 [1-14]	A to D
CN1C(=O)c2nn(-c3cccnc3)cc2Oc2ccc(F)cc21 [1-15]	A to D
C#CCN1C(=O)c2nn(-c3cccnc3)cc2Oc2ccc(F)cc21 [1-16]	A to D
Cc1ccc2c(c1)Oc1cn(-c3cccnc3)nc1C(=O)N2C [1-31]	A to D
CN(C)CCN1C(=O)c2nn(-c3cccnc3)cc2Oc2ccccc21 [1-69]	A to D
C#CCN1Cc2nn(-c3cccnc3)cc2Oc2ccccc21 [3-3]	A to D
CCOCN1C(=O)c2nn(-c3cccnc3)cc2Oc2ccccc21 [8-21]	A to D
C=CCN1C(=O)c2nn(-c3cccnc3)cc2Oc2cc(F)ccc21 [8-23]	A to D
N#CCN1C(=O)c2nn(-c3cccnc3)cc2Oc2ccc(Cl)cc21 [8-57]	A to D
C=CCN1C(=O)c2nn(-c3cccnc3)cc2Oc2ccc(Cl)cc21 [8-58]	A to D
C=CCN1C(=O)c2nn(-c3cccnc3)cc2Oc2ccc(Br)cc21 [8-64]	A to D
N#CCN1C(=O)c2nn(-c3cccnc3)cc2Oc2ccc(Br)cc21 [8-66]	A to D
Fc1ccc2c(c1)N=C(N1CCOCC1)c1nn(-c3cccnc3)cc1O2 [11-15]	A to D
COCOC1=Nc2ccccc2Oc2cn(-c3cccnc3)nc21 [11-16]	A to D
C=CCN1C(=O)c2nn(-c3cccnc3)cc2Oc2c1c(C)nn2C [14-3]	A to D

tested on: Green Peach Aphid (Myzus Persicae); experiment: Test of preventive value against green peach aphid (Test Example 1); assay type: in vivo; conditions: 500 ppm, sprayed over stems and leaves of potted Chinese cabbages, sixth day after spraying
Protocol: Test of Preventive Value Against Green Peach Aphid (Myzus Persicae)
Chinese cabbages were planted in plastic pots, each with a size of 8 cm in diameter and 8 cm in height, after which green peach aphids were propagated and the number of parasitic insects was examined in each pot. An oxazepine compound or salt thereof expressed by General Formula (I) according to the present invention was dispersed in water and the dispersion was diluted to 500 ppm in the form of a reagent, after which the reagent was sprayed over stems and leaves of potted Chinese cabbages and let dry under wind, and the pots were kept in a greenhouse, and on the sixth day after the reagent was sprayed, the number of green peach aphids living parasitically on each Chinese cabbage was examined and the preventive value was calculated based on the formula below, and judgment was made according to the criteria below. Preventive value=100−{(T×Ca)/(Ta×C)}×100 [Mathematical Formula 1] • Ta: Number of parasitic insects inside the treatment area before spraying • T: Number of parasitic insects inside the treatment area after spraying • Ca: Number of parasitic insects inside the non-treatment area before spraying • C: Number of parasitic insects inside the non-treatment area after spraying Judgment Criteria • A - - - Preventive value: 100% • B - - - Preventive value: 99%˜90% • C - - - Preventive value: 89%˜80% • D - - - Preventive value: 79%˜50%

Structure (SMILES)	Preventive value, judgment
C#CCN1C(=O)c2nn(-c3cccnc3)cc2Oc2ccccc21 [1-3]	A to D
N#CCN1C(=O)c2nn(-c3cccnc3)cc2Oc2ccccc21 [1-4]	A to D
O=C1c2nn(-c3cccnc3)cc2Oc2ccccc2N1CC(F)(F)F [1-5]	A to D
O=C1Nc2cccc(F)c2Oc2cn(-c3cccnc3)nc21 [1-6]	A to D
CN1C(=O)c2nn(-c3cccnc3)cc2Oc2c(F)cccc21 [1-7]	A to D
C#CCN1C(=O)c2nn(-c3cccnc3)cc2Oc2c(F)cccc21 [1-8]	A to D
N#CCN1C(=O)c2nn(-c3cccnc3)cc2Oc2c(F)cccc21 [1-9]	A to D
C#CCN1C(=O)c2nn(-c3cccnc3)cc2Oc2cc(F)ccc21 [1-12]	A to D
O=C1Nc2cc(F)ccc2Oc2cn(-c3cccnc3)nc21 [1-14]	A to D
CN1C(=O)c2nn(-c3cccnc3)cc2Oc2ccc(F)cc21 [1-15]	A to D
C#CCN1C(=O)c2nn(-c3cccnc3)cc2Oc2ccc(F)cc21 [1-16]	A to D
O=C1Nc2cccc(Cl)c2Oc2cn(-c3cccnc3)nc21 [1-22]	A to D
CN1C(=O)c2nn(-c3cncc(Br)c3)cc2Oc2ccccc21 [1-83]	A to D
CN1Cc2nn(-c3cccnc3)cc2Oc2ccccc21 [3-2]	A to D
N#CCN1Cc2nn(-c3cccnc3)cc2Oc2cc(F)ccc21 [3-5]	A to D
CC(=O)N1Cc2nn(-c3cccnc3)cc2Oc2ccc(F)cc21 [3-9]	A to D
C[S+]([O-])CN1C(=O)c2nn(-c3cccnc3)cc2Oc2ccccc21 (stereo not shown) [8-3]	A to D
CC#CCN1C(=O)c2nn(-c3cccnc3)cc2Oc2ccccc21 [8-5]	A to D
CC(C)=CCN1C(=O)c2nn(-c3cccnc3)cc2Oc2ccccc21 [8-6]	A to D
CN(C)C(=O)CN1C(=O)c2nn(-c3cccnc3)cc2Oc2ccccc21 [8-7]	A to D
NC(=O)CCN1C(=O)c2nn(-c3cccnc3)cc2Oc2ccccc21 [8-8]	A to D
CC(=O)OCN1C(=O)c2nn(-c3cccnc3)cc2Oc2ccccc21 [8-9]	A to D

Structure (SMILES)	Preventive value, judgment
O=C1c2nn(-c3cccnc3)cc2Oc2ccccc2N1CC1OCCO1 [8-11]	A to D
CN(C)C(=O)N1C(=O)c2nn(-c3cccnc3)cc2Oc2ccccc21 [8-14]	A to D
O=CCN1C(=O)c2nn(-c3cccnc3)cc2Oc2ccccc21 [8-15]	A to D
CON=CCN1C(=O)c2nn(-c3cccnc3)cc2Oc2ccccc21 [8-16]	A to D
O=C1c2nn(-c3cccnc3)cc2Oc2ccccc2N1CCSCCC(F)(F)F [8-17]	A to D
O=C1c2nn(-c3cccnc3)cc2Oc2ccccc2N1CC[S+]([O-])CCC(F)(F)F (stereo not shown) [8-18]	A to D
O=C1c2nn(-c3cccnc3)cc2Oc2ccccc2N1CCS(=O)(=O)CCC(F)(F)F [8-19]	A to D
COCN1C(=O)c2nn(-c3cccnc3)cc2Oc2c(F)cccc21 [8-22]	A to D
O=C1c2nn(-c3cccnc3)cc2Oc2cc(F)ccc2N1CC1CC1 [8-27]	A to D
CC(C)CN1C(=O)c2nn(-c3cccnc3)cc2Oc2cc(F)ccc21 [8-28]	A to D
CCC(C)N1C(=O)c2nn(-c3cccnc3)cc2Oc2cc(F)ccc21 (stereo not shown) [8-29]	A to D
N#CCCCN1C(=O)c2nn(-c3cccnc3)cc2Oc2cc(F)ccc21 [8-30]	A to D
N#CC(F)N1C(=O)c2nn(-c3cccnc3)cc2Oc2cc(F)ccc21 (stereo not shown) [8-33]	A to D
O=C1c2nn(-c3cccnc3)cc2Oc2ccc(F)cc2N1CC1CC1 [8-36]	A to D
O=C1c2nn(-c3cccnc3)cc2Oc2ccc(F)cc2N1CC(F)(F)F [8-39]	A to D
O=C1c2nn(-c3cccnc3)cc2Oc2ccc(F)cc2N1CC1OCCO1 [8-43]	A to D
O=C1c2nn(-c3cccnc3)cc2Oc2ccc(F)cc2N1CCN1CCOCC1 [8-44]	A to D
CSCN1C(=O)c2nn(-c3cccnc3)cc2Oc2ccc(F)cc21 [8-47]	A to D
C[S+]([O-])CN1C(=O)c2nn(-c3cccnc3)cc2Oc2ccc(F)cc21 (stereo not shown) [8-48]	A to D
CC(C#N)N1C(=O)c2nn(-c3cccnc3)cc2Oc2ccc(F)cc21 (stereo not shown) [8-50]	A to D
N#CCCCN1C(=O)c2nn(-c3cccnc3)cc2Oc2ccc(F)cc21 [8-51]	A to D
NC(=O)CN1C(=O)c2nn(-c3cccnc3)cc2Oc2ccc(F)cc21 [8-52]	A to D

Structure (SMILES)	Preventive value, judgment
O=CN1C(=O)c2nn(-c3cccnc3)cc2Oc2ccc(F)cc21 [8-53]	A to D
CN1C(=O)c2nn(-c3cccnc3)cc2Oc2ccc(Cl)cc21 [8-55]	A to D
CN1C(=O)c2nn(-c3cccnc3)cc2Oc2cccc(Cl)c21 [8-59]	A to D
O=C1Nc2ccc(Br)cc2Oc2cn(-c3cccnc3)nc21 [8-60]	A to D
CN1C(=O)c2nn(-c3cccnc3)cc2Oc2cc(Br)ccc21 [8-61]	A to D
CN1C(=O)c2nn(-c3cccnc3)cc2Oc2ccc(Br)cc21 [8-63]	A to D
C#CCN1C(=O)c2nn(-c3cccnc3)cc2Oc2ccc(Br)cc21 [8-65]	A to D
CN1C(=O)c2nn(-c3cccnc3)cc2Oc2cc(I)ccc21 [8-67]	A to D
O=C1Nc2ccc(Cl)cc2Oc2c1nn(-c1cccnc1)c2Cl [9-4]	A to D
N#CCN1C(=O)c2nn(-c3cccnc3)c(Cl)c2Oc2cc(F)ccc21 [9-5]	A to D
O=C1Nc2ccccc2Nc2cn(-c3cccnc3)nc21 [10-1]	A to D
C[Si](C)(C)C#CC1=Nc2ccccc2Oc2cn(-c3cccnc3)nc21 [11-4]	A to D
CN1CCN(C2=Nc3ccccc3Oc3cn(-c4cccnc4)nc32)CC1 [11-12]	A to D
CN1CCN(C2=Nc3cc(F)ccc3Oc3cn(-c4cccnc4)nc32)CC1 [11-13]	A to D
c1cncc(-n2cc3c(n2)C(N2CCOCC2)=Nc2ccccc2O3)c1 [11-14]	A to D
Cc1nn(C)c2c1N(C)C(=O)c1nn(-c3cccnc3)cc1O2 [14-2]	A to D
C#CCN1C(=O)c2nn(-c3cccnc3)cc2Oc2c1c(C)nn2C [14-4]	A to D
O=C1Nc2ccsc2Oc2cn(-c3cccnc3)nc21 [15-1]	A to D
CN1C(=O)c2nn(-c3cccnc3)cc2Oc2sccc21 [15-2]	A to D
C#CCN1C(=O)c2nn(-c3cccnc3)cc2Oc2sccc21 [15-3]	A to D
N#CCN1C(=O)c2nn(-c3cccnc3)cc2Oc2sccc21 [15-4]	A to D

From patent US10100061B2, “Oxazepine compound and agricultural/horticultural insecticide containing said compound as active ingredient, and method for using the same” (NIHON NOHYAKU CO., LTD., priority 2014, dated 2018)
